Reference: patent US12178838B2, “Synthetic neuromodulatory peptides” (Lactocore, Inc., priority 2019, dated 2024)

Legend:
Type in all cases: in vivo
zebrafish (Danio rerio) [1] = test: Shoaling behavior test in zebrafish; details: ip, DKTE 1 mg/kg, vs control
Protocol: (§1) The tested substances were injected into the zebrafish intraperitoneally (ip) using an insulin syringe (0.5 ml, 30 g) 10 minutes before the test. The saline solution (0.9% NaCl) was used as a solvent. Anesthesia and immobilization of the animals were achieved by placing them in water at a temperature of 10° C. Control group fish received intraperitoneal injections of an equivalent volume of solvent, also after going through a pre-cooling procedure.
A Plexiglas container with a removable partition (shown in FIG. 4) was used as a setup for investigating the shoaling behavior of zebrafish. A shoal of 5 adult Danio rerio specimens was placed into in the small compartment; and the test fish was placed in a large compartment. Diffused lighting in this installation was provided by the usual lighting of the room (about 200 Lx).
The shoaling behavior test was performed as described in Parker et al., 2014. (Parker et al. (2014) The utility of zebrafish to study the mechanisms by which ethanol affects social behavior and anxiety during early brain development. Prog. Neuro-Psychopharmacology Biol. Psychiatry. 94-100). The video recording began simultaneously with placing the zebrafish in the set-up and recorded for 5 minutes. The videos were processed using RealTimer (OpenScience Ltd., Moskow, Russia). During the processing of the records, the residence time and the number of visits to the three conventional zones of the aquarium wall (near the “shoal” in the middle of the aquarium, and near the opposite side; all three were equal in size) were recorded.

zebrafish (Danio rerio) [2] = test: Open Field test in zebrafish; details: ip
Protocol: as §1
A base, back, and side walls of the aquarium were made of matte black plastic; the front panel (shorter wall) was made of transparent Plexiglas. The setup for the Light/Dark preference test consisted of three main parts: a launch compartment, a light compartment made of white plastic, and a dark compartment made of black plastic. The bright lighting in these tests was provided by a lamp on a stand (LED lamp PL, 11 W, light flux≈600 Lm, about 500 Lx directly above the water surface), which was attached to the upper part of the aquarium.
The open field test was performed as described in Maximino et al., 2013. A video recording (background shooting) was started 20-30 seconds before the zebrafish were placed in the test aquarium. The experimental zebrafish was placed in an open field (“OF”) aquarium using a net. The recording was being conducted for five minutes. The test was carried out using EthoVision XT software package (Noldus). The software registered the distance covered by the animal, its speed, the number of visits to the three conventional zones of the aquarium: “bottom,” “center,” and […] (lower, middle, and upper thirds of the aquarium, respectively), the time spent in these zones, and the latency of a visit to the middle and to the surface of the aquarium.

Sprague Dawley rats = test: Elevated Plus Maze in rats, intranasal FQSE; details: FQSE 0.5 mg/kg i.n.; diazepam 2 mg/kg IP
Protocol: The five doses of FQSE (SEQ ID NO:10) (0.01, 0.1, 0.5, 1 and 3 mg/kg, CS, Menlo Park, CA) were prepared fresh for each test day in sterile saline and administered intranasally (i.n.) 30 minutes prior to testing. Fifteen rats per group per peptide dose were tested with the exception that there were twenty rats in the vehicle (0) group. Each dose was administered in a randomized order across rats. Prior to dosing, the rats were lightly anesthetized (till loss of righting reflex) with isoflurane (2.5%, 0.5 L/min oxygen), placed in the recumbent position, then a thin plastic pipette (Fischer Scientific) inserted into the nares and peptide administered at a volume of 15-20 uL per nares. Individuals performing the behavioral tests were blind to drug treatment.
Rats were first allowed to acclimate to the testing room for 30 minutes while in their home cage. During testing, a rat was placed on the maze which consists of two open arms (45-cm long×10-cm wide), two closed arms (45-cm long×10-cm wide×30-cm high), and a middle compartment (4-cm long×4-cm wide) forming the shape of a plus located 50-cm above the floor, for 5-min. The test session was digitally recorded for later analyses (Ethovision, XT12). All testing was conducted under red lighting. An experimenter observed the rat during testing through a specialized observation window built into the door of the behavioral testing room. […]

[3] = system: Wistar rats after chronic unpredictable mild stress; test: CUMS model: Novelty Suppressed Feeding Test
Protocol: During stress, the animals were placed in individual cells and exposed to stressful conditions each day for 26 days. Two stressors were used daily, applied in the following order: • Day 1. 10 am-6 pm, rats were placed in a cold room for an hour. From 6 PM to 10 am the lights were turned on and off every 2 hours. • Day 2. 10 am-6 pm, cage tilted to 45°. From 6 PM to 10 am water deprivation. • Day 3. 10 am-6 pm, stroboscopic light. From 6 PM to 10 am the light was left on overnight. • Day 4. 10 am-6 pm, wet bedding. From 6 PM to 10 am the animals were put in a small mouse cage. • Day 5. 10 am-6 pm, no bedding. From 6 PM to 10 am the lights were turned on and off every 2 hours. • Day 6. 10 am-6 pm, a new rat was placed in the cage (6-month-old). From 6 PM to 10 am the light was left on overnight. • Day 7. 10 am-6 pm, white noise. From 6 PM to 10 am a stroboscopic light was turned on at night. • Day 8-26. Repetition of previously used stressors in the specified sequence.
Experimental substances were administered daily starting from the 58-59 day of the experiment. The administration took place 30 minutes before the start of behavioral testing. On days when there were no tests, the substances were administered in the morning.
To assess anxiety and food motivation, a test for eating behavior in a new environment was used. […] The time to start eating and the duration of consumption were recorded. […]

CN1C(=O)CN=C(c2ccccc2)c2cc(Cl)ccc21 [Diazepam]
time spent in the compartment near the shoal (zebrafish (Danio rerio) [1]; diazepam 1.25 mg/kg, ACZ-10 0.6 mg/kg, BCM-7 5 mg/kg): statistically significant decrease | time spent outside the shoaling compartment (near the wall opposite to the shoal) (zebrafish (Danio rerio) [1]; diazepam 5 mg/kg, FQSE 10 mg/kg): increase | distance covered during the open field test (zebrafish (Danio rerio) [2]; diazepam 10 mg/kg): tended to cover a smaller distance | average distance covered / track length (locomotor activity) (zebrafish (Danio rerio) [2]; diazepam 1.25, 5, 10, fluvoxamine 5, 10, ACZ-10 0.6, BCM-7 5, FQSE 1 and 10, DKTE 1, WDQV 10 mg/kg): did not demonstrate any significant effects | behavior in the open field test (zebrafish (Danio rerio) [2]; diazepam 1.25 and 5 mg/kg): No effects | percent time on the open arm (Sprague Dawley rats): 10.8±1.11% | result obtained in NSFT (11 administrations) ([3]; CUMS, FQSE 0.5 mg/kg, Diazepam): anxiolytic effect | latency to start eating ([3]; FQSE 0.5 mg/kg i.n., diazepam 0.5 mg/kg i.p., 11 days): significant decrease in latency
